One may read the IC50 as the concentration that inhibits the measured activity by half.

Structures are written as SMILES. Counter-ions that a name gives are not always drawn.

One assay has as its system human platelets. Briefly: Inhibition of the arachidonic acid-induced aggregation of human platelets in vitro. It is filed as cell-based. Conditions: Platelet, PRP, 10 min preincubation at 37° C., 2×10^-4 M arachidonic acid. The protocol: 1. Inhibition of the arachidonic acid-induced aggregation of human platelets in vitro.
The platelet aggregation is followed optically by measurement of the transmission of light in a Born aggregometer. The total volume of the test mix is 0.25 ml. The preincubation time at 37° C. with the test product is 10 min, and aggregation is then induced with 2×10^-4 M arachidonic acid. The test product is, as a rule, tested in five different concentrations in the PRP from three different donors. Dose-effect curves are drawn from the maximal aggregation amplitudes in each case, and the IC50 values are determined graphically. […] The measurements are carried out in the period 1-6 hours after blood sampling.

In assay [1] the test system is TXA2 release in platelet-rich human plasma. Put plainly: Thrombin-induced TXA2 release in platelet-rich human plasma in vitro (TXB2 radioimmunoassay). It counts as cell-based. Conditions: 0.5 h, relative TXB2 content, without test substance = 100%, 0.5 U thrombin + 7.2×10^-7 M arachidonic acid; for activity at 1 µM: 10^-6 mol/l test substance; for activity at 0.1 µM: 10^-7 mol/l test substance. On the procedure: 2. Thrombin-induced TXA2 release in platelet-rich human plasma in vitro Blood is taken, by careful cannulation of the antecubital vein, from apparently healthy male and female volunteers, who have taken no medicaments in the preceding 10-day period, and is immediately stabilized with sodium citrate (ad. 0.38%). Platelet-rich plasma (PRP) is obtained in the supernatant by centrifugation at 140×g for 15 minutes, and the platelet content of this should be in the range 2.5-3.5×10^8 /ml. […] This is stopped in an ice bath and, after addition of tracer and TXB2 -specific antibodies (NEN, Dreieich), the TXB2 content is determined radioimmunologically (TXA2 is unstable under the experimental conditions and thus cannot be measured. The stable hydrolysis product TXB2 is measured in its place). The measured variable is the relative TXB2 content in the platelet incubations from two or three different donors with and without (=100%) the test substance.

For the next assay, the system named is Laser-induced thrombosis. Put plainly: Inhibition of Laser-induced thrombosis. The note with it: 10 mg/kg p.o., one hour before start; mesentery arterioles, rat. It is filed as in vivo, Sprague-Dawley rats. The protocol:
3. Inhibition of Laser-induced thrombosis
The investigations of the compounds according to the invention in the model of Laser-induced thrombosis are carried out on male or female Sprague-Dawley rats with a body weight of about 200 g. The animals to be investigated are premedicated s.c. with 0.1 mg of atropine sulfate in solution, and anesthetized i.p. with 100 mg of ketamine hydrochloride and 4 mg of xylazine per kg of body weight. Arterioles from the mesentry, with a diameter of 12-25 μm, are used for the investigation. During the measurement, the exposed mesentry is hyperfused with warmed physiological NaCl (37° C.) or is covered with degassed liquid paraffin. The beam of a 4 W argon laser (supplied by Spectra Physics, Darmstadt, FRG) is introduced coaxially into the inverted ray path of a microscope (ICM 405, LD-Epilan 40/0.60; supplied by Zeiss, Oberkochen, FRG) by means of a ray adaptation and adjustment system (supplied by BIG, Munich, FRG). […]
The number of shots needed to induce a defined thrombus was counted. The frequency of the laser flashes was one lesion every 2 minutes, all the thrombi with a minimum size of 1/4 of the vessel radius which were formed during the observation period being counted and measured. The results of the experiment were statistically analyzed using the x^2 test (L. Cavalli-Sforza, Biometrie, Stuttgart, 1969, pages 49 et seq.).

The compound `Cc1ccncc1C(O)c1ccc2cc(C(=O)O)ccc2c1.Cl` (stereo not shown) [Example 8, 6-[1-Hydroxy-1-(4-methyl-3-pyridyl)methyl]-2-naphthoic acid hydrochloride] returned an IC50 in the assay on human platelets of 6.3 µM. In addition, in assay [1], the activity at 1 µM was 13% and the activity at 0.1 µM came to 88%. For the same compound, the “Number of laser shots to form a thrombus (compared with control)” value with Laser-induced thrombosis is “+56%”.

`O=C(O)c1ccc2cc(C(O)c3cccnc3)ccc2c1` (stereo not shown) [Example 9, hydrochloride of 6-[1-hydroxy-1-(3-pyridyl)methyl]-2-naphthoic acid]: the IC50 in the assay on human platelets was determined as 1.7 µM. For the same compound, in assay [1], the activity at 1 µM was 21% and the activity at 0.1 µM came to 64%.
